Source: patent US6555547B1, “Method for treating a patient with neoplasia by treatment with a vinca alkaloid derivative” (Cell Pathways, Inc., priority 2000, dated 2003)
pIC50: −log10 of the molar value. Read-outs that look alike come from different tables or passages of the source. Values belong to the compound of their own block, whether it stands above or below them.

Columns and labels:
[1] = test system: premalignant lesions in mouse mammary gland organ culture; test: Mammary gland organ culture model
Source text: Test compounds identified by the above methods can be tested for antineoplastic activity by their ability to inhibit the incidence of pre-neoplastic lesions in a mammary gland organ culture system. This mouse mammary gland organ culture technique has been successfully used by other investigators to study the effects of known antineoplastic agents such as certain NSAIDs, retinoids, tamoxifen, selenium, and certain natural products, and is useful for validation of the screening method of the present invention.
For example, female BALB/c mice can be treated with a combination of estradiol and progesterone daily, in order to prime the glands to be responsive to hormones in vitro. The animals are sacrificed, and thoracic mammary glands are excised aseptically and incubated for ten days in growth media supplemented with insulin, prolactin, hydrocortisone, and aldosterone. DMBA (7,12-dimethylbenz(a)anthracene) is added to medium to induce the formation of premalignant lesions. […]
The extent of the area occupied by the mammary lesions can be quantitated by projecting an image of the gland onto a digitation pad. […] The space covered by each of the non-regressed structures is also outlined on the digitization pad and quantitated by the computer. […]

HT-29 cells [2] = test: Growth inhibition assay, SRB; format: cell-based, human
[3] = target: T1, cGMP binding sites of GST-cGB-PDE5 fusion protein (Homo sapiens, UniProt O76074); test: cGMP binding assay; settings: for Competition with cGMP for binding of GST-cGB-PDE5 at high concentration: 100 μM, cGMP 2 μM
T1 construct: made in house; host or cells: E. coli BL21 (DE3)

[4] = test system: cGMP and cAMP in HT-29 cells; test: Cyclic nucleotide levels in HT-29 cells by radioimmunoassay; format: cell-based, human; settings: HT-29 cells treated 30 minutes
[5] = target: T2, PDE Peak A (PDE5) from SW480 cells (Homo sapiens, UniProt O76074); test: Inhibition of cGMP hydrolysis by PDE Peak A from SW480; format: biochemical
T2 construct: endogenous in cells; host or cells: SW480 colon cancer cells; DEAE-Trisacryl M fraction of the 105,000 g supernatant

HT-29 cells [6] = test: Apoptosis and necrosis, morphological (acridine orange/ethidium bromide); format: cell-based, human; settings: HT-29, treated 6 days
Source text: Following treatment with a compound, cultures can be assayed for apoptosis and necrosis by florescent microscopy following labeling with acridine orange and ethidium bromide. The method for measuring apoptotic cell number has previously been described by Duke & Cohen, “Morphological And Biochemical Assays Of Apoptosis,” Current Protocols In Immunology, Coligan et al., eds., 3.17.1-3.17.16 (1992), which is incorporated herein by reference.
For example, floating and attached cells can be collected by trypsinization and washed three times in PBS. Aliquots of cells can be centrifuged. The pellet can then be re-suspended in media and a dye mixture containing acridine orange and ethidium bromide prepared in PBS and mixed gently. The mixture can then be placed on a microscope slide and examined for morphological features of apoptosis.
Reference compounds and test compounds were analyzed for their novel PDE inhibitory activity in accordance with the protocols for the assay, supra. […] Apoptotic and necrotic cell death was determined previously (Duke and Cohen, In: Current Protocols in Immunology, 3.17.1-3.17.16, New York, John Wiley and Sons, 1992). […]
The apoptosis inducing activity for a series of phosphodiesterase inhibitors was determined. […] Apoptosis and necrosis were determined morphologically after acridine orange and ethidium bromide labeling in accordance with the assay described, supra.

[7] = test system: novel cGMP-specific PDE Peak B (Section IIB) from SW480 cells; test: Inhibition of cGMP hydrolysis by novel PDE Peak B from SW480; format: biochemical, human
[8] = target: T3, novel cGMP-specific PDE Peak B (Section IIB) from SW480 cells (Homo sapiens, UniProt O00408); test: as above; format: biochemical
T3 construct: IC50 Peak B (μM); native enzyme
T3 sequence (O00408 whole entry): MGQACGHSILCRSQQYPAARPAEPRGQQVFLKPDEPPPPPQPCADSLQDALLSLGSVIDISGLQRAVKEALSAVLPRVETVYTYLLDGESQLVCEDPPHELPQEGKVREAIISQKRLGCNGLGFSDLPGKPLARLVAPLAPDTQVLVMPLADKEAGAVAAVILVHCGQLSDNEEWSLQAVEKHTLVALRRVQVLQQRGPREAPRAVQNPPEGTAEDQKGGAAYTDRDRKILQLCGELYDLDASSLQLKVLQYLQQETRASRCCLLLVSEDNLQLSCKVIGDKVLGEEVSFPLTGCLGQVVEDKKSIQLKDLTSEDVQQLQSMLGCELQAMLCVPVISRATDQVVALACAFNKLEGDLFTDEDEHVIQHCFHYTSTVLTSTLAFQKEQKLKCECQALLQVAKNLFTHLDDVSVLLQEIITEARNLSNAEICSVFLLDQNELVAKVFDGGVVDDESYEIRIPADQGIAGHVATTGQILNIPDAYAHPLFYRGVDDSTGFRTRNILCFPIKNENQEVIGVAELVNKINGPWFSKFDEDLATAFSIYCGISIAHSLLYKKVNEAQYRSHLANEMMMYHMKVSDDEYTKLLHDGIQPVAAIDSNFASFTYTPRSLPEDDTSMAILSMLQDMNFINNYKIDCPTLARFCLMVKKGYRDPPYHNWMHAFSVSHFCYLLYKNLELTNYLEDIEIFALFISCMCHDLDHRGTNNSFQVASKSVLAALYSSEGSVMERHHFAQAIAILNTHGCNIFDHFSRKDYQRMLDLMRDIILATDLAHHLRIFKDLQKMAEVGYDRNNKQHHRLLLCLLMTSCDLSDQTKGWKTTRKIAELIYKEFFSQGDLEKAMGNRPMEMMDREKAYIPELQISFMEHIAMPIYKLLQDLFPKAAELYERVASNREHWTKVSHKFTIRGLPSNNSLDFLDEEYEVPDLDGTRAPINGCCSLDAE

[9] = test system: Calu-6 adenocarcinoma cell line; test: Cell growth, alone and in combination with vinca alkaloid; format: cell-based, human; settings: Calu-6, 1-hour exposure, 0.01 mcg/ml
Method: Exisulind and Compound I were analyzed using two human lung cancer cell lines; H460, a large cell carcinoma with a doubling time of 16 hours, and Calu-6, an adenocarcinoma with a doubling time of 21 hours. Exisulind and Compound I were analyzed alone and in combination with the vinca alkaloid, Navelbine™ vinorelbine. The cytotoxic agents were administered for 1 hour, while exisulind and Compound I were administered for either 1 hour or given as a continuous exposure.
Cells were plated on day 0 and allowed to attach. On day 1, the cells were exposed to one of the cytotoxic agents dissolved in media pre-warmed to 37° C. and incubated at 37° C. for 1 hour. The cells were then washed twice and re-fed pre-warned media with or without either exisulind or Compound I and incubated for one hour at 37° C. After the one-hour incubation, the cells were washed twice, re-fed, and returned to the incubator; the continuous exposure cultures were not washed and re-fed. Appropriate controls were included for each condition. […] All data points were done in triplicate and the mean graphed as a percent of control growth.
Exisulind and Compound I were first dissolved in DMSO and brought to the desired concentrations by slowly adding warm media to the drug-DMSO solution to prevent precipitation.

Compound: 5-fluoro-2-methyl-1-(p-methylsulfinylbenzylidene)-3-indenylacetic acid [Sulindac sulfide]
Inhibition of premalignant lesions in mammary gland organ culture [1]: inactive
Growth inhibition and apoptosis time course (HT-29 cells [2]; HT-29, 120 μM, viable cells by trypan blue, apoptosis morphological): capable of inhibiting tumor cell growth, and that the effect is accompanied by an increase in apoptosis
Competition with cGMP for binding of GST-cGB-PDE5 ([3]; 3H-cGMP 2 μM): do not bind to the cGMP binding sites of PDE5
Increase in levels of cGMP [4]: greater than 50%
Levels of cAMP [4]: unaffected
Competitive (with cGMP) binding/inhibition, Peak A [5]: competitively inhibited both Peaks A and B phosphodiesterases at the same potency

Competition with cGMP for binding of GST-cGB-PDE5 ([3]; 3H-cGMP 2 μM): did not compete with cGMP in binding
Compound: CCCCOC1C2OP(=O)(O)OCC2OC1n1cnc2c(N)ncnc21 (stereo not shown) [2′-O-butyl-cAMP]

Competition with cGMP for binding of GST-cGB-PDE5 ([3]; 3H-cGMP 2 μM): did not compete with cGMP in binding
Compound: CCCCOC1C2OP(=O)(O)OCC2OC1n1cnc2c(=O)[nH]c(N)nc21 (stereo not shown) [2′-O-butyl-cGMP]

pIC50 (HT-29 cells [2]; HT-29, 6 days, SRB assay): < 3.70
Compound: COCc1nc2c([nH]1)c(=O)n(C)c(=O)n2CC(C)C [8-methoxy-IBMX]
% Apoptosis (HT-29 cells [6]): 2%
% Necrosis (HT-29 cells [6]): 1%

Competition with cGMP for binding of GST-cGB-PDE5 at high concentration [3]: can partially compete with cGMP
Compound: Nc1nc2c(nc(Br)n2[C@@H]2O[C@@H]3COP(=O)(O)O[C@H]3[C@H]2O)c(=O)[nH]1 [Compound 8-bromo-cGMP, 8-bromo-cGMP]

Compound: COc1cc(C=C2C(C)=C(CC(=O)O)c3cc(F)ccc32)cc(OC)c1OC [Compound B, (Z)-5-Fluoro-2-methyl-1-(3,4,5-trimethoxybenzylidene)-3-acetic acid]
Competition with cGMP for binding of GST-cGB-PDE5 ([3]; 3H-cGMP 2 μM): do not bind to the cGMP binding sites of PDE5

Ratio (IC50 PeakA/Peak B) [7]: 1.0
pIC50 [8]: 6.43
Compound: COc1cc(/C=C2/C(C)=C(CC(=O)NCc3ccccc3)c3cc(F)ccc32)cc(OC)c1OC [Compound E, (Z)-5-Fluoro-2-methyl-1-(3,4,5-trimethoxybenzylidene)-3-indenylacetamide, N-benzyl]
Competition with cGMP for binding of GST-cGB-PDE5 ([3]; 3H-cGMP 2 μM): do not bind to the cGMP binding sites of PDE5
Competitive (with cGMP) binding/inhibition, Peak B [8]: also competitively (with cGMP) binds to PDE Peak B
Competitive (with cGMP) binding/inhibition, Peak A [5]: does competitively (with cGMP) bind to PDE 5 (i.e., Peak A)

Compound: Nc1ncnc2c1ncn2[C@@H]1O[C@@H]2COP(=O)(O)O[C@H]2[C@H]1O [Cyclic AMP]
Competition with cGMP for binding of GST-cGB-PDE5 [3]: did not compete with cGMP in binding

Competition with cGMP for binding of GST-cGB-PDE5 at high concentration [3]: can partially compete with cGMP
Compound: O=c1[nH]cnc2c1ncn2[C@@H]1O[C@@H]2COP(=O)(O)O[C@H]2[C@H]1O [Cyclic IMP]

Compound: CC1(C)C(=O)Nc2ccc(C3=NNC(=O)CC3)cc21 [Indolidan]
Ratio (IC50 PeakA/Peak B) [7]: <0.31
pIC50 [8]: < 4.00

Compound: COc1ccc(C2CNC(=O)C2)cc1OC1CCCC1 (stereo not shown) [Rolipram]
pIC50 [8]: < 4.00
Levels of cAMP [4]: increased cAMP

Compound: CCCc1nn(C)c2c(=O)[nH]c(-c3cc(S(=O)(=O)N4CCN(C)CC4)ccc3OCC)nc12 [Sildenafil, sildenafil]
Inhibition of Peak A activity [5]: inhibited activity of Peak A

Compound: CCOC(=O)C1=C[C@]2(CC)CCCN3CCc4c(n1c1ccccc41)[C@@H]32 [Vinpocetine]
pIC50 [8]: < 4.00

Compound: CCCOc1ccccc1-c1nc2nn[nH]c2c(=O)[nH]1 [Zaprinast, zaprinast]
Competition with cGMP for binding of GST-cGB-PDE5 ([3]; 3H-cGMP 2 μM): do not bind to the cGMP binding sites of PDE5

Competition with cGMP for binding of GST-cGB-PDE5 ([3]; 3H-cGMP 2 μM): did not compete with cGMP in binding
Compound: Nc1ccn([C@@H]2O[C@@H]3COP(=O)(O)O[C@H]3[C@H]2O)c(=O)n1 [cCMP, cyclic CMP]

Competition with cGMP for binding of GST-cGB-PDE5 ([3]; 3H-cGMP 2 μM): did not compete with cGMP in binding
Compound: O=c1ccn([C@@H]2O[C@@H]3COP(=O)(O)O[C@H]3[C@H]2O)c(=O)[nH]1 [cUMP, cyclic UMP]

Compound: CCC1=C[C@@H]2CN(C1)Cc1c([nH]c3ccccc13)[C@@](C(=O)OC)(c1cc3c(cc1OC)N(C)[C@H]1[C@@](O)(C(=O)OC)[C@H](OC(C)=O)[C@]4(CC)C=CCN5CC[C@]31[C@@H]54)C2 [vinca alkaloid, vinorelbine]
% of control growth [9]: 52%
activity at 0.01 µg/mL ([9]; Homo sapiens, Calu-6, 1 h, read-out: % of control growth): 56%
